The test system of series [1] is P-glycoprotein (human MDR1). As to the kind of experiment: MDCKII-MDR1 permeability and P-glycoprotein substrate assay. Particulars: dog; for efflux ratio at 60 min, 10 µM: MDCK-MDR1, pH 7.4, without P-gp inhibitor; for Papp A→B at 60 min, 10 µM / Papp B→A at 60 min, 10 µM: MDCK-MDR1, pH 7.4, without P-gp inhibitor; for Papp A→B at 60 min, 10 µM: read-out: MDCKII-MDR1 Papp(A2B); for Papp B→A at 60 min, 10 µM: read-out: MDCKII-MDR1 Papp(B2A). The format is in vitro ADME, canine cells over-expressing human MDR1. As to the method: Permeability and P-glycoprotein substrate assessment was done on MDCKII-hMDR1, Madin-Darby canine epithelial cells over-expressing human MDR1 gene, coding for P-glycoprotein.
Cells were prepared for transport studies by seeding on 96-well cell culture inserts (Millipore, MA, USA) in a concentration of 0.25 × 10^6 cells per ml. The cells were fed with fresh medium 24 h post seeding and cultured to confluence for 3 days before use. On the day of experiment, the cell monolayers were washed and equilibrated with transport medium (DPBS, pH 7.4 containing 1% DMSO) with or without P-gp specific inhibitor, elacridar (2 µM) for 45 min (37 °C, 5% CO2, 95% humidity). Test compound solution consisted of test substance (10 μM) in D-PBS medium containing lucifer yellow (100 μM) and 1% DMSO. Transport assays were conducted in apical to basolateral (A2B) and basolateral to apical (B2A) directions, respectively. Monolayers were incubated with the compound solution for 60 min at 37 °C under gentle agitation. Apical and basolateral compartments were sampled at the end of the transport experiment, while donor solutions were also sampled at the beginning of the experiment in order to determine initial concentration. Test substance concentrations in both compartments were determined by LC-MS/MS. There were several controls used in the assay: 1) amprenavir (0.5 μM) served as a low permeable control, being also a P-gp substrate; 2) diclofenac (10 μM) was used as a high permeable control; 3) Lucifer yellow, a fluorescent marker for the paracellular membrane transport, was used as a control of cell monolayer integrity.
All ADME samples were analysed on a Sciex API 4000 or Sciex API4500 Triple Quadrupole Mass Spectrometer (Sciex, Framingham, MA, USA) coupled to a UHPLC System (Shimadzu Nexera X2; Shimadzu, Kyoto, Japan). Samples were injected onto an UPLC column (HALO2 C18, 2.1 × 20 mm, 2 µm or Phenomenex Luna Omega Polar C18, 30 × 2.1 mm, 1.6 µm) and eluted with a gradient at temperature of 50 °C. The mobile phase was composed of acetonitrile (with 0.1% formic acid) and 0.1% formic acid in deionised water. A total run time was 1 or 1.5 min, with the flow rate of 0.7 ml/min (under gradient conditions). A positive ion mode with turbo spray, an ion source temperature of 500 °C and a dwell time of 150 ms were utilised for mass spectrometric detection. Multiple reaction monitoring (MRM) was used at the specific transitions for each compound/control tested: compound 5c: 361.9 → 304.9; compound 5d: 344.8 → 287.9; compound 5e: 349.8 → 292.9; compound 5 g: 350.8 → 293.9; compound 5 h: 344.0 → 286.9; compound 6a: 276.9 → 220.0; compound 5 b: 319.0 → 262.0; compound 6 b: 302.1 → 245.1; compound 6c: 344.9 → 288.0; compound 6d: 333.0 → 276.0; compound 6e: 316.1 → 259.0; compound 6f: 327.1 → 270.0; compound 6 g: 377.1 → 320.1; testosterone: 289.3→ 97.1; propranolol: 260.1 → 182.8; caffeine: 195.2 → 138.1; acebutolol: 337.2 → 116.2, nicardipine: 480.2 → 315.0; verapamil: 455.4 → 165.1; amprenavir: 506.2 → 245.4; diclofenac: 296.1 → 213.7 or 296.2 → 215.3; eucatropine: 292.2 → 109.1; benfluorex: 352.1 → 230.3, and warfarin: 309.2 → 163.2

A further series relates to A549. As to the kind of experiment: BrdU proliferation assay, 2D cell culture. Particulars: Homo sapiens, A549, 2D cell culture, ±SD, N = 2. The format is cell-based. As to the method: (§1) Cells were grown in 96 well cell star polystyrene plates. 10,000 cells/well were seeded in wells 4 h prior the treatment with different compounds concentrations and incubated for 72 h. A cell viability assay was performed according to the manufacturer’s instruction, using CellTiter 96 aqueous solution, MTS kit (Promega, Madison, WI, USA). After 0.5–2 h of cell incubation with MTS in 2 D cell culture, the plates were read using PE EnVision absorbance at 490 nm. The results for each of tested compounds are reported as growth percentages from two independent concentrations curves compared with the untreated control cells after drug exposure. Since we prefer homogeneous assays (mix and read procedures) and therefore MTS is more practical (one step less than MTT). MTS is more sensitive and accurate in comparison with MTT assay.
Proliferation assay was performed using Cell Proliferation ELISA, BrdU (Sigma, St. Louis, MO, USA). Briefly, 48 h hours after compound addition, 10 µM of BrdU was added to each well and incubated for following 24 h. After incubation, single cell suspension was made for 3 D cell culture in the new 96 well plate. Plates were centrifuged and supernatants were removed from each plate (for 2 D and 3 D cell culture) followed by 60 min incubation at 60° C. The rest of the proliferation assay was performed according to the manufacturer instructions.
Calculation of IC50 data, curves and QC analysis is made by using Excel tools and GraphPadPrism software (La Jolla, CA), v. 5.03. In brief, individual concentration–effect curves are generated by plotting the logarithm of the tested concentration of tested compounds (X) versus corresponding percent inhibition values (Y) using least squares (ordinary) fit. […] QC criteria parameters (Z', S:B, R2, HillSlope) were checked for every IC50 curve.

The subject of the next series is NCI-H358. As to the kind of experiment: MTS cell viability (cytotoxicity) assay, 2D cell culture. The format is cell-based. The settings on record: Homo sapiens; NCI-H358, 2D cell culture, 72 h, MTS; ±SD, N = 2; read-out: IC50 antitumor activity NCI-H358 2D. As to the method:
(§2) Compounds are diluted 1:3. 500 nL (for 2 D cell culture) or 400 nL (for 3 D cell culture) of compound were transferred from mother plate to test plate by using Mosquito (TTP labtech). DMSO percentage in test concentrations was 0.5 − 1.0%. Starting concentration of the test compounds and standard compound doxorubicin was 50 µM (2 D cell culture) or 100 µM (3 D cell culture).
as §1, with “The results for each of tested compounds are reported as growth percentages from two independent concentrations curves compared with the untreated control cells after drug exposure.” left out
(§3) Calculation of IC50 data, curves and QC analysis is made by using Excel tools and GraphPadPrism software (La Jolla, CA), v. […] QC criteria parameters (Z', S:B, R2, HillSlope) were checked for every IC50 curve.

For a further series, the system named is HCC827. The series is described as above. In kind it is cell-based. Particulars: Homo sapiens; HCC827, 2D cell culture, 72 h, MTS; ±SD, N = 2; read-out: IC50 antitumor activity HCC827 2D. As to the method: as §2
as §1, with “The results for each of tested compounds are reported as growth percentages from two independent concentrations curves compared with the untreated control cells after drug exposure.” left out
as §3

On to `c1ccc2c(-c3nc4ccc(C5=NCCCN5)cc4[nH]3)c[nH]c2c1` [Compound 6e, 2-(1H-Indol-3-yl)-5(6)–(3,4,5,6-tetrahydropyrimidin-1-ium-2-yl)benzimidazole chloride], for which the efflux ratio at 60 min, 10 µM in series [1] was determined as 3.89. Moreover, in series [1], the Papp A→B at 60 min, 10 µM is 0.57 ×10⁻⁶ cm/s. For the same compound, in series [1], the Papp B→A at 60 min, 10 µM amounted to 2.17 ×10⁻⁶ cm/s. The IC50 in the series on A549, with NCI-H358 and with HCC827 was over 50 µM in each case.
For the compound `c1ccc(-c2nc3cc(C4=NCCCN4)ccc3[nH]2)cc1` [Compound 6a, 2-Phenyl-5(6)–(3,4,5,6-tetrahydropyrimidin-1-ium-2-yl)benzimidazole chloride], in series [1], the efflux ratio at 60 min, 10 µM was 3.7; the Papp A→B at 60 min, 10 µM turned out to be 0.4 ×10⁻⁶ cm/s; the Papp B→A at 60 min, 10 µM was found to be 1.4 ×10⁻⁶ cm/s. In the series with A549, this compound had a half-inhibitory concentration (IC50) of 11 ± 5.56 µM. For the same compound, the half-inhibitory concentration (IC50) in the series on NCI-H358 worked out at 13 ± 0.28 µM. The half-maximal inhibitory concentration (IC50) in the series with HCC827 is 6 ± 0.5 µM.
Consider `Cl.c1ccc2sc(-c3nc4ccc(C5=NCCCN5)cc4s3)cc2c1` [Compound 5e, 2-(Benzo[b]thiophen-2-yl)-6–(3,4,5,6-tetrahydropyrimidin-1-ium-2-yl)benzothiazole chloride], for which, in series [1], the efflux ratio at 60 min, 10 µM was over 78; the Papp A→B at 60 min, 10 µM was under 0.1 ×10⁻⁶ cm/s; the Papp B→A at 60 min, 10 µM amounted to 7.6 ×10⁻⁶ cm/s. This compound gave a concentration for half-maximal inhibition (IC50) with A549 of 16 ± 0.39 µM. Moreover, the concentration for half-maximal inhibition (IC50) in the series with NCI-H358 came out at 16 ± 0.98 µM. In the series on HCC827, the IC50 stood at 7 ± 0.12 µM.
`Cl.c1ccc2sc(-c3nc4ccc(C5=NCCCN5)cc4s3)nc2c1` [Compound 5g, 2-(Benzothiazole-2-yl)-6–(3,4,5,6-tetrahydropyrimidin-1-ium-2-yl)benzothiazole chloride]: in series [1], the efflux ratio at 60 min, 10 µM is over 17; the Papp A→B at 60 min, 10 µM was under 0.1 ×10⁻⁶ cm/s; the Papp B→A at 60 min, 10 µM came out at 16.5 ×10⁻⁶ cm/s. The same compound displayed an IC50 in the series with A549 of 7 ± 2.31 µM. The IC50 in the series with NCI-H358 was 26 ± 0.3 µM. Besides, the IC50 in the series with HCC827 was 19 ± 2.21 µM.
Regarding `c1ccc2c(c1)cc(-c1nc3cc(C4=NCCCN4)ccc3[nH]1)c1ccccc12` [Compound 6g, 2-(Phenanthrene-9-yl)-5(6)–(3,4,5,6-tetrahydropyrimidin-1-ium-2-yl)benzimidazole chloride], in series [1], the efflux ratio at 60 min, 10 µM came to 6.6. The Papp A→B at 60 min, 10 µM in series [1] worked out at 0.02 ×10⁻⁶ cm/s. In series [1], the Papp B→A at 60 min, 10 µM was found to be 0.2 ×10⁻⁶ cm/s. The half-maximal inhibitory concentration (IC50) in the series on A549, with NCI-H358 and in the series on HCC827 was over 50 µM throughout.
Consider `FC(F)(F)c1ccc(-c2nc3cc(C4=NCCCN4)ccc3[nH]2)cc1` [Compound 6c, 2–(4-Trifluoromethylphenyl)-5(6)–(3,4,5,6-tetrahydropyrimidin-1-ium-2-yl)benzimidazole chloride], for which the efflux ratio at 60 min, 10 µM in series [1] amounted to 2.82. Moreover, the Papp A→B at 60 min, 10 µM in series [1] was 0.69 ×10⁻⁶ cm/s. The Papp B→A at 60 min, 10 µM in series [1] was 1.93 ×10⁻⁶ cm/s. Also, the IC50 with A549, with NCI-H358 and in the series with HCC827 was over 50 µM in each case.
For `c1ccc2sc(-c3nc4cc(C5=NCCCN5)ccc4[nH]3)cc2c1` [Compound 6d, 2-(Benzo[b]thiophen-2-yl)-5(6)–(3,4,5,6-tetrahydropyrimidin-1-ium-2-yl)benzimidazole chloride], the efflux ratio at 60 min, 10 µM in series [1] is 7.75. In addition, the Papp A→B at 60 min, 10 µM in series [1] worked out at 0.11 ×10⁻⁶ cm/s. Further, the Papp B→A at 60 min, 10 µM in series [1] turned out to be 0.86 ×10⁻⁶ cm/s. Besides, the 50% inhibitory concentration (IC50) in the series on A549, in the series on NCI-H358 and with HCC827 was over 50 µM throughout.
`N#Cc1ccc(-c2nc3cc(C4=NCCCN4)ccc3[nH]2)cc1` [Compound 6b, 2–(4-Cyanophenyl)-5(6)–(3,4,5,6-tetrahydropyrimidin-1-ium-2-yl)benzimidazole chloride]: in series [1], the efflux ratio at 60 min, 10 µM was under 2; the Papp A→B at 60 min, 10 µM turned out to be 0.92 ×10⁻⁶ cm/s; the Papp B→A at 60 min, 10 µM amounted to 1.02 ×10⁻⁶ cm/s. In the series on A549, this compound yielded a concentration for half-maximal inhibition (IC50) of over 50 µM. In addition, the concentration for half-maximal inhibition (IC50) in the series on NCI-H358 was over 50 µM. For the same compound, the IC50 with HCC827 was over 50 µM.
Turning to `Cl.c1ccc2cc(-c3nc4ccc(C5=NCCCN5)cc4s3)ccc2c1` [Compound 5h, 2-(Naphthalene-2-yl)-6–(3,4,5,6-tetrahydropyrimidin-1-ium-2-yl)benzothiazole chloride], in series [1], the efflux ratio at 60 min, 10 µM was over 77; the Papp A→B at 60 min, 10 µM was under 0.1 ×10⁻⁶ cm/s; the Papp B→A at 60 min, 10 µM was 7.7 ×10⁻⁶ cm/s. Moreover, half-maximal inhibition in the series with A549 (IC50) was put at 10 ± 0.78 µM. The half-inhibitory concentration (IC50) in the series with NCI-H358 was 10 ± 1 µM. In addition, the IC50 in the series on HCC827 is 6 ± 0.05 µM.
As for `Cl.c1ccc2nc(-c3nc4ccc(C5=NCCCN5)cc4s3)ccc2c1` [Compound 5d, 2-(Quinoline-2-yl)-6–(3,4,5,6-tetrahydropyrimidin-1-ium-2-yl)benzothiazole chloride], in series [1], the efflux ratio at 60 min, 10 µM was over 158; the Papp A→B at 60 min, 10 µM is under 0.1 ×10⁻⁶ cm/s; the Papp B→A at 60 min, 10 µM amounted to 15.8 ×10⁻⁶ cm/s. The compound further had a half-inhibitory concentration (IC50) in the series with A549 of 1 µM. In the series with NCI-H358, the half-inhibitory concentration (IC50) was found to be 20 ± 2.53 µM. For the same compound, the IC50 in the series with HCC827 worked out at 14 ± 2.09 µM.
In the case of `c1ccc2cc(-c3nc4cc(C5=NCCCN5)ccc4[nH]3)ccc2c1` [Compound 6f, 2-(Naphthalene-2-yl)-5(6)–(3,4,5,6-tetrahydropyrimidin-1-ium-2-yl)benzimidazole chloride], in series [1], the efflux ratio at 60 min, 10 µM is 3.23. Also, the Papp A→B at 60 min, 10 µM in series [1] came to 0.78 ×10⁻⁶ cm/s. In series [1], the Papp B→A at 60 min, 10 µM came to 2.49 ×10⁻⁶ cm/s. Further, the half-maximal inhibitory concentration (IC50) in the series with A549, in the series with NCI-H358 and in the series on HCC827 was over 50 µM in each case.

By efflux ratio is commonly meant a quotient of directional permeabilities that is used to spot active efflux. For orientation: IC50 means the concentration needed to halve the response being measured.

For the origin of these results see paper PMC7801115, “Preclinical in vitro screening of newly synthesised amidino substituted benzimidazoles and benzothiazoles” (Journal of Enzyme Inhibition and Medicinal Chemistry, 2021).
